Here are results for 58 compounds from patent EP4094762A1, “TREATMENT OF NEUROLOGICAL INDICATIONS” (UCL Business Ltd, priority 2021, dated 2022).

The test deals with T1, P2Y1 receptor (Homo sapiens, UniProt P47900).
T1 construct: expressed in transfected cells
T1 sequence (P47900 whole entry): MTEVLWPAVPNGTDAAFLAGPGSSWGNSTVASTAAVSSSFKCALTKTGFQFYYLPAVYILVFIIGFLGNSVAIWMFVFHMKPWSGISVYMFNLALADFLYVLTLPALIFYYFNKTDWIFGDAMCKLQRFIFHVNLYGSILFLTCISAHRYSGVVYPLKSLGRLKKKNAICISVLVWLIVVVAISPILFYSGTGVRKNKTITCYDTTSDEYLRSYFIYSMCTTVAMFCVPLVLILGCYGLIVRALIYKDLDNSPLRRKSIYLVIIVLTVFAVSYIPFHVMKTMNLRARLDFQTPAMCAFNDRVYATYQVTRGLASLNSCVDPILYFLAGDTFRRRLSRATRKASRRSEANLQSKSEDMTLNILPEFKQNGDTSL
Kind of test: Cell based HTRF assay measuring IP1 accumulation; antagonism of the P2Y1 agonist MRS2365. The settings on record: rounded to nearest whole number; read-out: IC50 IP1. The protocol: IC50 values were determined using a cell based assay in stably transfected cells overexpressing the P2Y1 receptor. The assay system is a high throughput […] assay measuring accumulation of the intracellular messenger inositol monophosphate (IP1), generated intracellularly following activation of P2Y1.
P2Y1 overexpressing cells were maintained in T175 flasks. The day before the assay, these cells were split and 20µl cell suspension transferred to each well of white 384-well assay plates at a cell density of 0.5x10^6 cells/mL. Plates were pulse centrifuged, then incubated overnight at 37°C / 5% CO2 prior to assay.
On day of assay, medium was removed from cells and replaced with stimulation buffer. […] Positive control antagonist curves with standard compounds were included on each plate. Plates were incubated with antagonists for 1 hour prior to addition of 5nM of the agonist MRS2365, dispensed using a Bravo liquid handler. Following agonist addition, plates were incubated for 60 minutes prior to assay. Both incubations were carried out at 37°C / 5% CO2.
For the assay, IP1 accumulation was quantified using the IPOne kit according to manufacturer's instructions. In short, a standard curve was prepared for IP1 quantification, and cells lysed using kit lysis buffer. Assay reagents were added to the lysates, and incubated for 1 hour at room temperature without spinning or shaking. Plates were analysed on a BMG Pherastar plate reader, and IP1 signal generated in cells interpolated from the standard curve.
In general terms: Time-resolved FRET reads energy transfer from a long-lived donor to a nearby acceptor.
As a reminder, the IC50 is the point on the concentration scale where inhibition reaches its midpoint. Consider `O=C(Nc1ccc(OC(F)(F)F)cc1)Nc1cccnc1Oc1cccc(N2CCCCC2)c1` [S31], for which the IC50 worked out at 0.607 µM.

Consider `COc1ccc(Br)c(Oc2ncccc2NC(=O)Nc2ccc(OC(F)(F)F)cc2)c1` [S78], for which the IC50 is 7.16 µM.

For `CC(C)(O)c1ccccc1Oc1ncccc1NC(=O)Nc1ccc(OC(F)(F)F)cc1` [S77], the IC50 came out at 7.12 µM.

`CC(C)(C)c1ccccc1Oc1nccc(O)c1NC(=O)Nc1ccccc1` [S54]: the IC50 turned out to be 1.77 µM.

In the case of `CC(C)(C)c1ccccc1Oc1ncc(-c2cccc(C#N)c2)cc1NC(=O)Nc1ccc(OC(F)(F)F)cc1` [S56], the IC50 turned out to be 1.96 µM.

Consider `C#Cc1cnc(Oc2ccccc2C)c(NC(=O)Nc2ccc(OC(F)(F)F)cc2)c1` [S68], for which the IC50 stood at 3.59 µM.

Regarding `CC(c1ccccc1Oc1ncccc1NC(=O)Nc1ccc(OC(F)(F)F)cc1)N1CCCCC1` (stereo not shown) [S74], the IC50 is 6 µM.

For the compound `CC(C)(C)c1ccccc1Oc1ncncc1NC(=O)Nc1ccc(OC(F)(F)F)cc1` [S18], the IC50 turned out to be 0.236 µM.

Regarding `O=C(Nc1ccc(OC(F)(F)F)cc1)Nc1cccnc1Oc1cccc(Br)c1` [S51], the IC50 was 1.32 µM.

Regarding `Cc1ccccc1Oc1ncc(Br)cc1NC(=O)Nc1ccc(OC(F)(F)F)cc1` [S72], the IC50 was found to be 4.94 µM.

Turning to `Cc1cnc(Oc2ccccc2C(C)(C)C)c(NC(=O)Nc2ccc(OC(F)(F)F)cc2)c1` [S13], the 50% inhibitory concentration (IC50) turned out to be 0.151 µM.

In the case of `Cc1ccccc1Oc1ncc(C(F)F)cc1NC(=O)Nc1ccc(OC(F)(F)F)cc1` [S57], the IC50 was 1.99 µM.

`CC(C)c1ccc(C(F)F)cc1Oc1ncccc1NC(=O)Nc1ccc(OC(F)(F)F)cc1` [S15]: the IC50 is 0.179 µM.

Turning to `Cc1c(Oc2ncccc2NC(=O)Nc2ccc(OC(F)(F)F)cc2)cccc1N1CCC2(CC1)COC2` [S36], the IC50 amounted to 0.732 µM.

On to `CC(C)(C)c1ccccc1Oc1ncccc1NC(=O)Nc1ccc2c(c1)OC(F)(F)O2` [S6], for which the IC50 turned out to be 0.076 µM.

For `Cc1c(Oc2ncccc2NC(=O)Nc2ccc(OC(F)(F)F)cc2)cccc1-c1ccc(C#N)cc1` [S16], the IC50 is 0.202 µM.

Turning to `Cc1c(Oc2ncccc2NC(=O)Nc2ccc(OC(F)(F)F)cc2)cccc1-c1cnn(C)c1` [S61], the IC50 stood at 2.46 µM.

In the case of `CCOC(=O)c1nnc(NC(=O)Nc2cccnc2Oc2ccccc2C(C)(C)C)s1` [S86], the IC50 was 9.68 µM.

As to `Cn1cc(-c2cnc(Oc3ccccc3C(C)(C)C)c(NC(=O)Nc3ccc(OC(F)(F)F)cc3)c2)cn1` [S48], the IC50 is 1.11 µM.

Regarding `Cc1c(Oc2ncccc2NC(=O)Nc2ccc(OC(F)(F)F)cc2)cccc1-c1cccc(C#N)c1` [S27], the IC50 stood at 0.512 µM.

For the compound `Cn1cc(-c2cccc(Oc3ncccc3NC(=O)Nc3ccc(OC(F)(F)F)cc3)c2)cn1` [S82], the IC50 was 8.18 µM.

For the compound `Cc1ccccc1COc1ncccc1NC(=O)Nc1ccc(OC(F)(F)F)cc1` [S70], the IC50 turned out to be 4.59 µM.

Regarding `Cc1c(Oc2ncccc2NC(=O)Nc2ccc(OC(F)(F)F)cc2)cccc1-c1cccc(CN(C)C)c1` [S85], the IC50 was 9.53 µM.

Take `CC(C)(C)c1ccccc1Oc1ncc(-c2ccc3c(c2)OCCN3)cc1NC(=O)Nc1ccc(OC(F)(F)F)cc1` [S26]: the IC50 stood at 0.493 µM.

In the case of `CC(C)(C)c1ccccc1Oc1ccsc1NC(=O)Nc1ccc(OC(F)(F)F)cc1` [S45], the concentration for half-maximal inhibition (IC50) is 1.06 µM.

Take `N#Cc1cccc(-c2cccc(Oc3ncccc3NC(=O)Nc3ccc(OC(F)(F)F)cc3)c2)c1` [S63]: the 50% inhibitory concentration (IC50) amounted to 2.51 µM.

`Cc1c(C#N)cccc1Oc1ncccc1NC(=O)Nc1ccc(OC(F)(F)F)cc1` [S44]: the IC50 was determined as 1.03 µM.

In the case of `Cc1c(Oc2ncccc2NC(=O)Nc2ccc(OC(F)(F)F)cc2)cccc1-c1ccc2ccn(C)c2c1` [S37], the IC50 turned out to be 0.778 µM.

For `CC(C)(C)c1ccccc1Oc1ncc(Br)cc1NC(=O)Nc1ccc(OC(F)(F)F)cc1` [S29], the IC50 came to 0.514 µM.

On to `Cc1c(Oc2ncccc2NC(=O)Nc2ccc(OC(F)(F)F)cc2)cccc1S(C)(=O)=O` [S75], for which the IC50 is 6.59 µM.

Take `Cc1cnc(Oc2cccc(N3CCCCC3)c2C)c(NC(=O)Nc2ccc(OC(F)(F)F)cc2)c1` [S64]: the IC50 turned out to be 2.81 µM.

Regarding `O=C(Nc1ccc(F)cc1F)Nc1cccnc1Oc1ccc(C(F)(F)F)cc1` [S80], the IC50 came to 7.94 µM.

As for `Cc1c(Oc2ncccc2NC(=O)Nc2ccc(OC(F)(F)F)cc2)cccc1N1CCCC1` [S35], the IC50 came out at 0.655 µM.

`COc1ccc([C@H](C)NC(=O)Nc2cccnc2Oc2ccccc2C(C)(C)C)cc1` [S62]: the IC50 came out at 2.47 µM.

As to `Cc1ccccc1Oc1ncc(NC2CCOCC2)cc1NC(=O)Nc1ccc(OC(F)(F)F)cc1` [S84], the IC50 was 8.99 µM.

As for `O=C(Nc1ccc(OC(F)(F)F)cc1)Nc1cccnc1Oc1ccccc1S(F)(F)(F)(F)F` [S10], the IC50 was 0.124 µM.

For `Cc1cccc(Oc2ncccc2NC(=O)Nc2ccc(OC(F)(F)F)cc2)c1Br` [S24], the IC50 was found to be 0.398 µM.

`Cc1cccc(Oc2ncccc2NC(=O)Nc2ccc(OC(F)(F)F)cc2)c1` [S47]: the IC50 came out at 1.1 µM.

As for `CC(C)(C)c1ccccc1Oc1ncccc1NC(=O)Nc1nc2ccc(Cl)nc2s1` [S17], the IC50 turned out to be 0.209 µM.

As to `N#Cc1cccc(Oc2ncccc2NC(=O)Nc2ccc(OC(F)(F)F)cc2)c1` [S73], the IC50 amounted to 5.84 µM.

Take `O=C(Nc1ccc(OC(F)(F)F)cc1)Nc1cccnc1Oc1cccc(OCc2ccccc2)c1` [S40]: the IC50 worked out at 0.924 µM.

As for `Cc1ccccc1Oc1ncncc1NC(=O)Nc1ccc(OC(F)(F)F)cc1` [S81], the IC50 was found to be 8.12 µM.

On to `CC(C)c1cccc(C(F)F)c1Oc1ncccc1NC(=O)Nc1ccc(OC(F)(F)F)cc1` [S30], for which the concentration for half-maximal inhibition (IC50) amounted to 0.574 µM.

On to `CC(C)(C)c1ccccc1Oc1nnccc1NC(=O)Nc1ccc(OC(F)(F)F)cc1` [S53], for which the IC50 worked out at 1.77 µM.

Consider `Cc1c(Oc2ncccc2NC(=O)Nc2ccc(OC(F)(F)F)cc2)cccc1-c1ccc2c(c1)OCCN2` [S49], for which the IC50 was determined as 1.24 µM.

Take `CC(C)(C)c1ccccc1Oc1ncccc1NC(=O)NCCCc1ccccc1` [S34]: the IC50 came to 0.64 µM.

On to `O=C(Nc1ccc(OC(F)(F)F)cc1)Nc1cccnc1Oc1cccc(-c2ccccc2)c1` [S39], for which the IC50 was determined as 0.827 µM.

Take `C=Cc1cnc(Oc2ccccc2C)c(NC(=O)Nc2ccc(OC(F)(F)F)cc2)c1` [S67]: the half-maximal inhibitory concentration (IC50) was determined as 3.35 µM.

Take `CC(C)(C)c1ccccc1Oc1ncccc1NC(=O)NC1CC2(C1)CN(CC(F)(F)F)C2` [S76]: the IC50 was 7.07 µM.

In the case of `Cc1c(Oc2ncccc2NC(=O)Nc2ccc(OC(F)(F)F)cc2)cccc1N1CC2CC1CO2` (stereo not shown) [S59], the IC50 worked out at 2.14 µM.

As to `CC(C)(C)c1ccccc1Oc1ncc(C#N)cc1NC(=O)Nc1ccc(OC(F)(F)F)cc1` [S19], the IC50 came to 0.264 µM.

Turning to `CC(C)(C)c1cccc(Oc2ncccc2NC(=O)Nc2ccc(OC(F)(F)F)cc2)c1` [S20], the IC50 is 0.276 µM.

For the compound `Cc1c(Br)cccc1Oc1ncccc1NC(=O)Nc1ccc(OC(F)(F)F)cc1` [S28], the IC50 came to 0.513 µM.

Take `Cc1ccnc(Oc2ccccc2C(C)(C)C)c1NC(=O)Nc1ccc(OC(F)(F)F)cc1` [S22]: the IC50 was 0.302 µM.

On to `O=C(Nc1ccc(OC(F)(F)F)cc1)Nc1cccnc1Oc1ccccc1Br` [S41], for which the IC50 worked out at 0.925 µM.

For `N#Cc1ccc(-c2cccc(Oc3ncccc3NC(=O)Nc3ccc(OC(F)(F)F)cc3)c2)cc1` [S71], the IC50 was 4.94 µM.

With `O=C(Nc1ccc(OC(F)(F)F)cc1)Nc1cccnc1Oc1cc(O)ccc1Br` [S50], the IC50 is 1.28 µM.

Consider `Cc1ccccc1Oc1ncc(C(F)(F)F)cc1NC(=O)Nc1ccc(OC(F)(F)F)cc1` [S69], for which the IC50 was determined as 4.39 µM.
